Legend:
Type in all cases: in vivo
Spodoptera eridania = experiment: Action on Southern Armyworm (Spodoptera eridania), 2nd Instar Larvae; conditions: 300 ppm; 2nd instar larvae; 4 days after treatment
Experimental: Example B7: Action on Southern Armyworm (Spodoptera eridania), 2nd Instar Larvae
The active compounds were formulated by a Tecan liquid handler in 100% cyclohexanone as a 10,000 ppm solution supplied in tubes. The 10,000 ppm solution was serially diluted in 100% cyclohexanone to make interim solutions. These served as stock solutions for which final dilutions were made by the Tecan in 50% acetone: 50% water (v/v) into 10 or 20 ml glass vials. A nonionic surfactant (Kinetic®) was included in the solution at a volume of 0.01% (v/v). The vials were then inserted into an automated electrostatic sprayer equipped with an atomizing nozzle for application to plants/insects.
Lima bean plants (variety Sieva) were grown 2 plants to a pot and selected for treatment at the 1st true leaf stage. Test solutions were sprayed onto the foliage by an automated electrostatic plant sprayer equipped with an atomizing spray nozzle. The plants were dried in the sprayer fume hood and then removed from the sprayer. Each pot was placed into perforated plastic bags with a zip closure. About 10 to 11 armyworm larvae were placed into the bag and the bags zipped closed. Test plants were maintained in a growth room at about 25 °C and about 20-40% relative humidity for 4 days, avoiding direct exposure to fluorescent light (24 hour photoperiod) to prevent trapping of heat inside the bags. Mortality and reduced feeding were assessed 4 days after treatment, compared to untreated control plants.
(§1) Compounds disclosed in the document WO2021013561 were prepared according to procedures described therein and their pesticidal activities were determined by procedure analogues to the procedures as described above in examples B6 and B7.

Anthonomus grandis = experiment: Action on Boll Weevil (Anthonomus grandis); conditions: 800 ppm; egg and larval mortality; 5 days
Experimental: Example B3: Action on Boll Weevil (Anthonomus grandis)
For evaluating control of boll weevil (Anthonomus grandis) the test unit consisted of 96-well-microtiter plates containing an insect diet and 5-10 A. grandis eggs.
The compounds were formulated using a solution containing 75% (v/v) water and 25% (v/v) DMSO. Different concentrations of formulated compounds were sprayed onto the insect diet at 5 μl, using a custom-built micro atomizer, at two replications.
After application, microtiter plates were incubated at about 25±1 °C and about 75±5% relative humidity for 5 days. Egg and larval mortality were then visually assessed.

Heliothis virescens = experiment: Action on Tobacco Budworm (Heliothis virescens); conditions: 800 ppm; egg and larval mortality; 5 days
Experimental: Example B5: Action on Tobacco Budworm (Heliothis virescens)
For evaluating control of tobacco budworm (Heliothis virescens) the test unit consisted of 96-well-microtiter plates containing an insect diet and 15-25 H. virescens eggs.
The compounds were formulated using a solution containing 75% v/v water and 25% v/v DMSO. Different concentrations of formulated compounds were sprayed onto the insect diet at 10 μl, using a custom-built micro atomizer, at two replications.
After application, microtiter plates were incubated at about 28±1 °C and about 80±5% relative humidity for 5 days. Egg and larval mortality were then visually assessed.

Plutella xylostella = experiment: Action on Diamond Back Moth (Plutella xylostella), cabbage leaf dip, 3rd instar larvae; conditions: 300 ppm; 3rd instar larvae; 72 hours after treatment
Experimental: Example B6: Action on Diamond Back Moth (Plutella xylostella)
The active compound is dissolved at the desired concentration in a mixture of 1:1 (v/v) distilled water:acetone. Surfactant (Kinetic® HV) is added at a rate of 0.01% (v/v). The test solution is prepared at the day of use.
Leaves of cabbage were dipped in test solution and air-dried. Treated leaves were placed in petri dishes lined with moist filter paper and inoculated with ten 3rd instar larvae. Mortality was recorded 72 hours after treatment. Feeding damages were also recorded using a scale of 0-100%.
as §1

Aedes aegypti = experiment: whole plant or invertebrate; conditions: 800 ppm; larvae; 2 days
Experimental: Example B1: Action on Yellow Fever Mosquito (Aedes aegypti)
For evaluating control of yellow fever mosquito (Aedes aegypti) the test unit consisted of 96-well-microtiter plates containing 200 μl of tap water per well and 5-15 freshly hatched A. aegypti larvae.
The active compounds or mixtures were formulated using a solution containing 75% (v/V) water and 25% (v/v) DMSO. Different concentrations of formulated compounds or mixtures were sprayed onto the insect diet at 2.5 μl, using a custom-built micro atomizer, at two replications. For experimental mixtures in these tests identical volumes of both mixing partners at the desired concentrations respectively, were mixed together.
After application, microtiter plates were incubated at 28±1 °C, 80±5% RH for 2 days. Larval mortality was then visually assessed.

SMILES	mortality in comparison with untreated controls (Spodoptera eridania)	mortality in comparison with untreated controls (Anthonomus grandis)	mortality in comparison with untreated controls (Heliothis virescens)	mortality in comparison with untreated controls (Plutella xylostella)	mortality in comparison with untreated controls (Aedes aegypti)
CC(=O)c1ccc(C(=O)Nc2cn(-c3ccc(NC(=O)N=C4SCC(=O)N4c4cc(C)ccc4C(C)C)cc3)nc2C)cc1 [Example C-69]	at least 75%				
Cc1ccc(C(C)C)c(N2C(=O)CSC2=NC(=O)Nc2ccc(-n3cc(NC(=O)c4ccc(OC(F)(F)F)cc4)c(C)n3)cc2Cl)c1 [Example C-131]	at least 75%				
Cc1ccc(C(C)C)c(N2C(=O)CSC2=NC(=O)Nc2ccc(-n3cc(NC(=O)c4ccc(S(C)(=O)=O)cc4F)c(C)n3)cc2)c1 [Example C-91]	at least 75%	at least 75%	at least 75%	at least 75%	
Cc1ccc(C(C)C)c(N2C(=O)CSC2=NC(=O)Nc2ccc(-n3cc(NC(=O)c4ccc(C5(C)COC5)cc4)c(C)n3)cc2)c1 [Example C-92]		at least 75%	at least 75%	at least 75%	
Cc1ccc(C(C)C)c(N2C(=O)CSC2=NC(=O)Nc2ccc(-n3cc(NC(=O)c4ccc(C5CC5(Cl)Cl)cc4)c(C)n3)cc2)c1 (racemic) [Example C-89]	at least 75%		at least 75%	at least 75%	
Cc1ccc(C(C)C)c(N2C(=O)CSC2=NC(=O)Nc2ccc(-n3cc(NC(=O)c4ccc(OCC#N)cc4)c(C)n3)cc2)c1 [Example C-76]	at least 75%	at least 75%	at least 75%	at least 75%	
CSc1ccc(C(=O)Nc2cn(-c3ccc(NC(=O)N=C4SCC(=O)N4c4cc(C)ccc4C(C)C)cc3)nc2C)cc1 [Example C-83]		at least 75%	at least 75%	at least 75%	at least 50%
Cc1ccc(C(C)C)c(N2C(=O)CSC2=NC(=O)Nc2ccc(-n3cc(NC(=O)c4ccc(N(C)C)cc4)c(C)n3)cc2)c1 [Example C-75]	at least 75%	at least 75%	at least 75%	at least 75%	
CCOc1ccc(C(=O)Nc2cn(-c3ccc(NC(=O)N=C4SCC(=O)N4c4cc(C)ccc4C(C)C)cc3)nc2C)cc1 [Example C-85]	at least 75%		at least 75%	at least 75%	
Cc1ccc(C(C)C)c(N/C(=N/C(=O)Nc2ccc(-n3cc(NC(=O)c4ccc(OC(F)(F)F)cc4)c(C)n3)cc2)SCOC(=O)C(C)C)c1 [Example C-129]		at least 75%	at least 75%	at least 75%	at least 50%
Cc1ccc(C(C)C)c(N2C(=O)CSC2=NC(=O)Nc2ccc(-n3cc(NC(=O)c4ccc(CC#N)cc4)c(C)n3)cc2)c1 [Example C-78]	at least 75%	at least 75%	at least 75%	at least 75%	
COC(C)(C)c1ccc(C(=O)Nc2cn(-c3ccc(NC(=O)N=C4SCC(=O)N4c4cc(C)ccc4C(C)C)cc3)nc2C)cc1 [Example C-61]			at least 75%	at least 75%	
Cc1ccc(C(C)C)c(N2C(=O)CSC2=NC(=O)Nc2ccc(-n3cc(NC(=O)c4ccc(C5(F)COC5)cc4)c(C)n3)cc2)c1 [Example C-77]		at least 75%	at least 75%	at least 75%	
Cc1ccc(C(C)C)c(N2C(=O)CSC2=NC(=O)Nc2ccc(-n3cc(NC(=O)c4ccc(C#N)nc4)c(C)n3)cc2)c1 [Example C-90]		at least 75%		at least 75%	
Cc1ccc(C(C)C)c(N2C(=O)CSC2=NC(=O)Nc2ccc(-n3cc(NC(=O)c4ccc(Cl)cc4Cl)c(C)n3)cc2Cl)c1 [Example C-132]	at least 75%				
Cc1ccc(C(C)C)c(N2C(=O)CSC2=NC(=O)Nc2ccc(-n3cc(NC(=O)c4ccc(C(C)C)cc4)c(C)n3)cc2)c1 [Example C-70]			at least 75%	at least 75%	at least 50%
C=Cc1ccc(C(=O)Nc2cn(-c3ccc(NC(=O)N=C4SCC(=O)N4c4cc(C)ccc4C(C)C)cc3)nc2C)cc1 [Example C-87]		at least 75%	at least 75%	at least 75%	at least 50%
Cc1ccc(C(C)C)c(N2C(=O)CSC2=NC(=O)Nc2ccc(-n3cc(NC(=O)c4ccc(C#CC5CC5)cc4)c(C)n3)cc2)c1 [Example C-72]			at least 75%		
Cc1ccc(C(C)C)c(N2C(=O)CSC2=NC(=O)Nc2ccc(-n3nc(C)c(NC(=O)c4ccc(F)cc4)c3C)cc2Cl)c1 [Example C-124]	at least 75%				
Cc1ccc(C(C)C)c(N2C(=O)CSC2=NC(=O)Nc2ccc(-n3cc(NC(=O)c4cnc(C#N)nc4)c(C)n3)cc2)c1 [Example C-84]				at least 75%	
C#CCOc1ccc(C(=O)Nc2cn(-c3ccc(NC(=O)N=C4SCC(=O)N4c4cc(C)ccc4C(C)C)cc3)nc2C)cc1 [Example C-67]	at least 75%		at least 75%	at least 75%	at least 50%
Cc1ccc(C(C)C)c(N2C(=O)CS/C2=N\C(=O)Nc2ccc(-n3cc(NC(=O)c4ccc(C#N)cc4)c(C)n3)cc2)c1 [Example C-33]	at least 75%	at least 75%	at least 75%	at least 75%	
CCc1ccc(C(=O)Nc2cn(-c3ccc(NC(=O)N=C4SCC(=O)N4c4cc(C)ccc4C(C)C)cc3)nc2C)cc1 [Example C-80]		at least 75%	at least 75%	at least 75%	at least 50%
Cc1ccc(C(C)C)c(N2C(=O)CSC2=NC(=O)Nc2ccc(-n3cc(NC(=O)c4ccc(C5(C#N)CC5)cc4)c(C)n3)cc2)c1 [Example C-86]	at least 75%		at least 75%	at least 75%	

Source: patent US20260354380A1, “PYRAZOLO PESTICIDAL COMPOUNDS” (BASF SE, priority 2022, published 2026)
